Holding throughout (assay type): cell-based
For one data set, the target named is T1, human Nav1.2 (Homo sapiens, UniProt Q99250).
T1 construct: host or cells: HEK293
Kind of data set: Two pulse assay protocol, Nav1.2. Particulars: peak current. How it is done:
(§1) In vitro Na+ Current Inhibition Assays were performed by Eurofins Discovery (St Charles, MO). All compound functional activity determinations were determined through electrophysiological analyses of Na+ currents in HEK293 cells expressing a stably transfected Na+ channel (human Nav1.1, 1.2, 1.3, 1.5, 1.6, 1.7, or 1.8). After harvesting with Accutase cells are maintained in serum free medium at room temperature prior to electrophysiological recording utilizing the QPatch HT automated whole-cell patch-clamp platform (Sophion Bioscience, Woburn MA). Stock solution aliquots of the test compound are prepared in DMSO at 300× the final assay concentrations, and stored at −20° C. until the day of assay. On the day of the assay, an aliquot of the stock solution is thawed and diluted into external solution (137 mM NaCl, 4 mM KCl, 1 mM MgCl2, 1.8 mM CaCl2, 10 mM HEPES, 10 mM Glucose (pH 7.3, titrated with 10M NaOH) to make final test concentrations. A final concentration of 0.33% DMSO is maintained for each concentration of the assay compounds. Internal solution for recordings of Na+ consist consists of 100 mM CsF, 45 mM CsCl, 5 mM NaCl, 10 mM HEPES, 5 mM EGTA (pH 7.3, titrated with 1M CsOH).
(§2) Two pulse assay protocol for human Nav1.1, 1.2, 1.3, 1.5, 1.6, 1.7, and 1.8 channels. Mammalian cultured cells expressing the indicated human Nav1.1, 1.2, 1.3, 1.5, 1.6, 1.7 or 1.8 channels were assayed using the The QPatch HT (Sophion Bioscience, Woburn MA) automated system with an intracellular solution (mM) of 100 CsF, 45 CsCl, 5 NaCl, 10 HEPES, 5 EGTA (pH 7.3, titrated with 1M CsOH) and extracellular solution (mM) of 137 NaCl, 4 KCl, 1 MgCl2, 1.8 CaCl2, 10 HEPES, 10 Glucose (pH 7.3, titrated with 10M NaOH). Onset and steady state block of the sodium channel was measured using a pulse pattern, repeated every 20 seconds (s) from a holding potential of −120 mV for 100 ms, and then pulsed to 0 mV for 500 ms to inactivate the Na channels and facilitate inactivated state-dependent binding of the test compounds. The cell membranes were then stepped back to −120 mV for 10 ms to recover from inactivation into resting or closed state (channels with test compound bound to them will not recover from inactivation and will not open) before stepping to 0 mV for 50 ms (pulse 2) to measure Na channels that are available to open. Peak current was measured during the step to 0 mV at pulse 1 and 2 to measure tonic and state-dependent inhibition. Compound activities were assessed by dividing post current amplitude (at the end of each five (5) minute compound application) by the vehicle control amplitude and the mean calculated for each compound concentration. Tetracaine was used as a positive control and was tested concurrently with the test compounds. Current amplitudes in excess of 200 pA at the control stage were analyzed. The amplitude of the current was calculated by measuring the difference between the peak inward current on stepping to 0 mV (i.e. peak of the current) and remaining current at the end of the step. The current was assessed in vehicle control conditions and then at the end of each five (5) minute compound application.

The target in another data set is T2, human Nav1.6 (Homo sapiens, UniProt Q9UQD0).
T2 construct: host or cells: HEK293
As to the kind of experiment: Two pulse assay protocol, Nav1.6. The settings on record: 5 uM, peak current. The procedure, abridged: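 Whole-cell automated patch clamp on HEK293 cells stably expressing each channel; CsF-based internal, pH 7.3 HEPES external, 0.33% DMSO. Every 20 s from −120 mV: 500 ms step to 0 mV (pulse 1, tonic), 10 ms at −120 mV, then 50 ms to 0 mV (pulse 2, state-dependent); peak current versus vehicle after each 5 min application.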

The target of another data set is T3, human Nav1.1 (Homo sapiens, UniProt P35498).
T3 construct: host or cells: HEK293
Kind of data set: Two pulse assay protocol, Nav1.1. Particulars: peak current. How it is done:
(§3) In vitro Na+ Current Inhibition Assays were performed by Eurofins Discovery (St Charles, MO). All compound functional activity determinations were determined through electrophysiological analyses of Na+ currents in HEK293 cells expressing a stably transfected Na+ channel (human Nav1.1, 1.2, 1.3, 1.5, 1.6, 1.7, or 1.8). After harvesting with Accutase cells are maintained in serum free medium at room temperature prior to electrophysiological recording utilizing the QPatch HT automated whole-cell patch-clamp platform (Sophion Bioscience, Woburn MA). […]
(§4) Two pulse assay protocol for human Nav1.1, 1.2, 1.3, 1.5, 1.6, 1.7, and 1.8 channels. […] Onset and steady state block of the sodium channel was measured using a pulse pattern, repeated every 20 seconds (s) from a holding potential of −120 mV for 100 ms, and then pulsed to 0 mV for 500 ms to inactivate the Na channels and facilitate inactivated state-dependent binding of the test compounds. […] Peak current was measured during the step to 0 mV at pulse 1 and 2 to measure tonic and state-dependent inhibition. Compound activities were assessed by dividing post current amplitude (at the end of each five (5) minute compound application) by the vehicle control amplitude and the mean calculated for each compound concentration. […] Current amplitudes in excess of 200 pA at the control stage were analyzed. […]

Data set [1] has as its target T4, human Nav1.5 (peak current) (Homo sapiens, UniProt Q14524).
T4 construct: host or cells: HEK293
Kind of data set: Nav1.5 Peak Current Assay (QPatch HT whole-cell patch clamp). The settings on record: HEK293 cells stably expressing human Nav1.5, pH 7.3, peak current at step to -15 mV, read-out: percent inhibition hNav1.5 Peak (5 uM). The procedure: as §1
Onset and steady state block of peak Nav1.5 current was measured using a pulse pattern, repeated every 5 sec, consisting of a hyperpolarizing pulse to −120 mV for a 200 ms duration, depolarization to -15 mV amplitude for a 40 ms duration, followed by step to 40 mV for 200 ms and finally a 100 ms ramp (1.2 V/s) to a holding potential of −80 mV. Peak current was measured during the step to −15 mV.
Each concentration of compound was applied for 5 minutes. The assay was performed at room temperature and Tetracaine was used concurrently as a positive control. Only current amplitudes in excess of 200 pA at the control stage were analyzed. The amplitude of the sodium current was calculated by measuring the difference between the peak inward current on stepping to −15 mV (i.e. peak of the current) and the leak current. The sodium current was assessed in vehicle control conditions and then at the end of each five (5) minute compound application. Individual cell result was normalized to the vehicle control amplitude and the mean±SEM calculated for each compound concentration.
On the technique in general: Patch clamp records ionic current or voltage across a cell membrane.

Data set [2] addresses T5, human Nav1.5 (late current) (Homo sapiens, UniProt Q14524).
T5 construct: host or cells: HEK293
Kind of data set: Nav1.5 Late Current Assay (QPatch HT whole-cell patch clamp, 30 nM ATX-II). Particulars: HEK293 cells stably expressing human Nav1.5, pH 7.3, late current with 30 nM ATX-II, read-out: percent inhibition hNav1.5 Late (5 uM). The procedure: as §1
Onset and steady state induction of late Nav1.5 current was measured using a pulse pattern, repeated every 5 sec, consisting of a hyperpolarizing pulse to −120 mV for a 200 ms duration, depolarization to −15 mV amplitude for a 40 ms duration, followed by step to 40 mV for 200 ms and finally a 100 ms ramp (1.2 V/s) to a holding potential of −80 mV. Each concentration of compound was applied for 5 minutes. The assay was performed at room temperature. After establishing vehicle control condition, all further addition of external solutions contain 30 nM ATX-II to activate late currents. Each concentration of compound was also co-applied with 30 nM ATXII to estimate the Nav1.5 late current inhibition. […]. ATXII was used as the agonist positive control and was tested concurrently with the test compound. Ranolazine was used as the positive control and was tested concurrently with the test compound.
Nav1.5 late current was measured as the total charge flowing through the Nav1.5 channels (area under the curve) 5 ms after the Nav1.5 peak current till the end of the test pulse and as charge at their maxima during the ramp. Individual cell results were normalized to their respective vehicle control and the results were averaged. The sodium current was assessed in 30 nM ATXII as vehicle control conditions and then at the end of each five (5) minute compound application in the presence of 30 nM ATXII. Individual cell result was normalized to 30 nM ATXII vehicle control amplitude and the mean±SEM calculated for each compound concentration.

For a further data set, the target named is T6, human Nav1.3 (Homo sapiens, UniProt Q9NY46).
T6 construct: host or cells: HEK293
As to the kind of experiment: Two pulse assay protocol, Nav1.3. The settings on record: peak current. The procedure: as §3, §4

For another data set, the target named is T7, human Nav1.7 (Homo sapiens, UniProt Q15858).
T7 construct: host or cells: HEK293
Kind of data set: Two pulse assay protocol, Nav1.7. Particulars: peak current. How it is done:
as §1, §2

The target of the next data set is T8, human Nav1.8 (Homo sapiens, UniProt Q9Y5Y9).
T8 construct: host or cells: HEK293
Kind of data set: Two pulse assay protocol, Nav1.8. The settings on record: peak current. The procedure:
as §1, §2

Setting [3] is: pulse 1 (tonic), read-out: percent inhibition hNav1.6, Pulse 1 (5 uM).
[4] abbreviates: pulse 2 (state-dependent), read-out: percent inhibition hNav1.6, Pulse 2 (5 uM).
Setting [5] is: pulse 1 (tonic), read-out: percent inhibition hNav1.7, Pulse 1 (5 uM).
Where [6] appears, read: pulse 2 (state-dependent), read-out: percent inhibition hNav1.7, Pulse 2 (5 uM).

The text below walks through data of patent US20230303569A1, “HETEROCYCLIC COMPOUNDS AS THERAPEUTIC AGENTS” (Arisan Therapeutics Inc., priority 2021, published 2023).

Read-outs that look alike come from different tables or passages of the source.

T2 sequence (Q9UQD0 whole entry): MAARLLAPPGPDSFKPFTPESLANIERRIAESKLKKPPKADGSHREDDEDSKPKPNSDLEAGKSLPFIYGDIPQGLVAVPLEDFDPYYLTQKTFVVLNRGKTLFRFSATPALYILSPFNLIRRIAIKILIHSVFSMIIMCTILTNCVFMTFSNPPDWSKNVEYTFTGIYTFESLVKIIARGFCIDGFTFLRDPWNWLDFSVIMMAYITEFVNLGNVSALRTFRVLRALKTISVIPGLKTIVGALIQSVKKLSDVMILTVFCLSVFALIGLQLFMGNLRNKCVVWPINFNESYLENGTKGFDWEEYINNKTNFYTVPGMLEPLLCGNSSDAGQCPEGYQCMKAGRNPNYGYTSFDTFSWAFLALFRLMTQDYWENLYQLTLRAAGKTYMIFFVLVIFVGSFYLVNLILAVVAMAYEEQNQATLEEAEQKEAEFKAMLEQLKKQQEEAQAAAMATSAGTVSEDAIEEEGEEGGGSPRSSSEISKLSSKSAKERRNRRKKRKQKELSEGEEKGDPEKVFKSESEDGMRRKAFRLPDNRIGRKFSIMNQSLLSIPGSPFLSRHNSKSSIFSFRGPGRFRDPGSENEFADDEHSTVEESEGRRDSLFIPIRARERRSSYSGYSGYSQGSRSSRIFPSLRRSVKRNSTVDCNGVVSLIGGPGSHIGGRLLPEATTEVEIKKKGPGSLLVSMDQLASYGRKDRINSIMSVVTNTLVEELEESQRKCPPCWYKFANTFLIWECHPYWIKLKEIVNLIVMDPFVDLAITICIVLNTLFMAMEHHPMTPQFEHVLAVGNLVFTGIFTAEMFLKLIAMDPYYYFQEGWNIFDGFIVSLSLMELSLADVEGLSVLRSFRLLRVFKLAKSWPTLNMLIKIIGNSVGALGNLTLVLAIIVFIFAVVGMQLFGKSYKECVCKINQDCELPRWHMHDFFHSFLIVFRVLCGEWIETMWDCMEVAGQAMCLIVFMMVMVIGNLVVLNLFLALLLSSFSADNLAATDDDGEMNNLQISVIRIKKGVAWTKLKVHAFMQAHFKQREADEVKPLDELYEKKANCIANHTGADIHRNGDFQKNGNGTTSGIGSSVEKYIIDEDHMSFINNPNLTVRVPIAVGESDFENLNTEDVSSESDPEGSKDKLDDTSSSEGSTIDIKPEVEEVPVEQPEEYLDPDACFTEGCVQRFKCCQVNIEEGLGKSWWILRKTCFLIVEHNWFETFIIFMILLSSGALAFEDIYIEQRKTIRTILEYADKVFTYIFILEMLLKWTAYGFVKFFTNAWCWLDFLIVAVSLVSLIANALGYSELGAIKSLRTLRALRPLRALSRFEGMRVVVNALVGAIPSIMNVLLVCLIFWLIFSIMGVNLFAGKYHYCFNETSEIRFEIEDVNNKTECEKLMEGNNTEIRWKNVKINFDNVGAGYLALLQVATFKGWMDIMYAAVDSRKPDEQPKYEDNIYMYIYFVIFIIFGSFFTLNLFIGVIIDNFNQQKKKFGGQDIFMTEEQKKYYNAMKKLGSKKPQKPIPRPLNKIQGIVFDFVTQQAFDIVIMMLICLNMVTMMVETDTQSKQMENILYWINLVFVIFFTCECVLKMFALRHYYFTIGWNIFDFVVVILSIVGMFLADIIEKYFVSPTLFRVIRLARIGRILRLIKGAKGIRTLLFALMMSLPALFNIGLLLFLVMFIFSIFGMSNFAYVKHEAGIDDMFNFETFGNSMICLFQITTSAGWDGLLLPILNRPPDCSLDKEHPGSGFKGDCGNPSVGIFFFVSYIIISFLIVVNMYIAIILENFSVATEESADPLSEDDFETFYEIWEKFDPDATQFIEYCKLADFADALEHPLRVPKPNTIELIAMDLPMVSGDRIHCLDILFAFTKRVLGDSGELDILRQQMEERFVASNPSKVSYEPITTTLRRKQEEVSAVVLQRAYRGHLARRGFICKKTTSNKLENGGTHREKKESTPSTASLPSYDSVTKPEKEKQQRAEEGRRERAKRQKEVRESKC
T7 sequence (Q15858 whole entry): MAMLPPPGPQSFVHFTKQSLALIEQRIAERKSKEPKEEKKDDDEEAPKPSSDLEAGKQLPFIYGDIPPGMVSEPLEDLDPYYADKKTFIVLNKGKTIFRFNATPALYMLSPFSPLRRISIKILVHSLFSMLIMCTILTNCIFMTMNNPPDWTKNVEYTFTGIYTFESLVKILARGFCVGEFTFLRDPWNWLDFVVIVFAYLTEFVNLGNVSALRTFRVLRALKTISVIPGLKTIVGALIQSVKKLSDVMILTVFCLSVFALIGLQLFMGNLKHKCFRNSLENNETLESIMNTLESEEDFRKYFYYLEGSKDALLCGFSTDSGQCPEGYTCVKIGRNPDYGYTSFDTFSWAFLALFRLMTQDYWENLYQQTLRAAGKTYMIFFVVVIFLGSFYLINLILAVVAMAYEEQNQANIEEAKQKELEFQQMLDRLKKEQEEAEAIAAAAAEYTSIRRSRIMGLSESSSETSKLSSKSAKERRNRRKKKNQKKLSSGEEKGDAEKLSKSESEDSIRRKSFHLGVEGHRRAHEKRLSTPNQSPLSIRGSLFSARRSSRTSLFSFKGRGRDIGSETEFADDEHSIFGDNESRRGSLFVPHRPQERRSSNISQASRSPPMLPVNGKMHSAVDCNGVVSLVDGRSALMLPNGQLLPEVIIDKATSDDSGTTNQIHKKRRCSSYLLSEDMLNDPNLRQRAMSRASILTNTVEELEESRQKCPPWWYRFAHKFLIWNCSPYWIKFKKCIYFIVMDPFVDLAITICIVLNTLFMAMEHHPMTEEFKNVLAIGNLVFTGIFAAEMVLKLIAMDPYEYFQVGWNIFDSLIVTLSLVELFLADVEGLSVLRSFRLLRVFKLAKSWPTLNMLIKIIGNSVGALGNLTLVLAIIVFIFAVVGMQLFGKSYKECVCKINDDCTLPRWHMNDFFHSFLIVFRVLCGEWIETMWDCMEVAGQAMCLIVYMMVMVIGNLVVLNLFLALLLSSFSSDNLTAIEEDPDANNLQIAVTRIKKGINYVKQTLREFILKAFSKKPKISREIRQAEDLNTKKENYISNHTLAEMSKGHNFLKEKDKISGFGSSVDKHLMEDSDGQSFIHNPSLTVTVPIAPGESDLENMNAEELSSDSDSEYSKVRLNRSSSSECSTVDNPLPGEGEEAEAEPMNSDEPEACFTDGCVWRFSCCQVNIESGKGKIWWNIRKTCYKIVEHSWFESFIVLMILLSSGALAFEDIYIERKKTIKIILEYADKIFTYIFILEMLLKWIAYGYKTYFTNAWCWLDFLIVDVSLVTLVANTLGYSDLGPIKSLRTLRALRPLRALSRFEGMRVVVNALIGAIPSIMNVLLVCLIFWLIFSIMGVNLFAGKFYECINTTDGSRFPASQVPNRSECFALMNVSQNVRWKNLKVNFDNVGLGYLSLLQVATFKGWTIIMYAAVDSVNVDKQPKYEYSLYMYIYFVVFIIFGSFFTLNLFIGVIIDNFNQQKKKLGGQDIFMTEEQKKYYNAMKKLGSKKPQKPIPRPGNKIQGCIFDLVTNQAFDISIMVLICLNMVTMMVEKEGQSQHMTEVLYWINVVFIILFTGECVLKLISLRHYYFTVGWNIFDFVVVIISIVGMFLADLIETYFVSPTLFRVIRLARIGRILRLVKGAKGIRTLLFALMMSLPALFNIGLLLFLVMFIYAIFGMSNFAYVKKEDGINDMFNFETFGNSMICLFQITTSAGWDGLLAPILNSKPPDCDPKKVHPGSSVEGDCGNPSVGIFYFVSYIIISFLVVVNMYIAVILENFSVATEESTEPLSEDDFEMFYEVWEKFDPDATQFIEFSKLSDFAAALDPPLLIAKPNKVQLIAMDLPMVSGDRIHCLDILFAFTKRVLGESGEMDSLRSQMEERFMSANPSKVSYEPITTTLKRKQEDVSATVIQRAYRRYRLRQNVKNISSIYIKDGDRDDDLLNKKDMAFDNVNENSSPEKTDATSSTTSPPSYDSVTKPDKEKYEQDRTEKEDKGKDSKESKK

As for `CC(C)Oc1ccc(-c2cnc3ccc(-c4ccc(OC(C)C)nc4)cn23)cc1` [Example C12, 2-(propan-2-yloxy)-5-{3-[4-(propan-2-yloxy)phenyl]imidazo[1,2-a]pyridin-6-yl}pyridine], the inhibition (commonly the drop in the measured response relative to a control, in per cent) at 5 µM on human Nav1.2 (pulse 1 (tonic), read-out: percent inhibition hNav1.2, Pulse 1 (5 uM)) is less than 50%; at human Nav1.2 (pulse 2 (state-dependent), read-out: percent inhibition hNav1.2, Pulse 2 (5 uM)), more than 90%; at human Nav1.6 (setting [3]), less than 50%; on human Nav1.6 (setting [4]), more than 90%; at human Nav1.1 (pulse 1 (tonic), read-out: percent inhibition hNav1.1, Pulse 1 (5 uM)), less than 50%; on human Nav1.1 (pulse 2 (state-dependent), read-out: percent inhibition hNav1.1, Pulse 2 (5 uM)), more than 90%. Moreover, the inhibition at 5 µM on human Nav1.3 (pulse 1 (tonic), read-out: percent inhibition hNav1.3, Pulse 1 (5 uM)) was less than 50%; at human Nav1.3 (pulse 2 (state-dependent), read-out: percent inhibition hNav1.3, Pulse 2 (5 uM)), more than 90%; on human Nav1.7 (setting [5]) it was less than 50%; at human Nav1.7 (setting [6]) it was more than 90%. In addition, the inhibition at 5 min, 5 µM in data set [1] was in the range of 50 to 90%. The inhibition at 5 min, 5 uM in data set [2] was more than 90%.

As to `Cc1cc2ncc(-c3ccc(OC(C)(C)C)cc3)n2cc1-c1ccc(OC(C)C)cc1` [Example C55, 3-(4-(tert-butoxy)phenyl)-6-(4-isopropoxyphenyl)-7-methylimidazo[1,2-a]pyridine], the inhibition at 5 µM at human Nav1.6 (setting [3]) was less than 50%; on human Nav1.6 (setting [4]) it was more than 90%; on human Nav1.8 (pulse 1 (tonic), read-out: percent inhibition hNav1.8, Pulse 1 (5 uM)), less than 50%; on human Nav1.8 (pulse 2 (state-dependent), read-out: percent inhibition hNav1.8, Pulse 2 (5 uM)), less than 50%; at human Nav1.7 (setting [5]), less than 50%; at human Nav1.7 (setting [6]), 50 to 90%. In addition, in data set [1], the inhibition at 5 min, 5 µM was less than 50%. For the same molecule, the inhibition at 5 min, 5 uM in data set [2] lay within 50 to 90%.
